Consider two compounds from patent EP3900722A1, “COMBINATION OF FINERENONE AND PECAVAPTAN FOR THE TREATMENT AND/OR PREVENTION OF CARDIOVASCULAR AND/OR RENAL DISEASES” (Bayer AG, priority 2020, dated 2021).

This assay relates to awake Wistar rats with activated renin-angiotensin-aldosterone system. The assay is described as follows: In vivo assay for detecting natriuretic activity in conscious rats with activated RAAS. Also on record: Volume urine / body weight: unit not given here. To be noted: 8 hours after oral administration, metabolic cages, 3 mg/kg Finerenone, 0.3 mg/kg Pecavaptan, or both combined, mean ± SD, n = 7-8; for Urinary Na+/K+ concentration ratio: calculated from urinary sodium and potassium concentrations. The source says: Wistar rats (ca. 250-500 g body weight) were kept with free access to feed (Altromin) and drinking water. […] This sodium-reduced feed causes an activation of the RAAS in the animals during the 3 days run-in phase and therefore mimics a neuroendocrine activation which is characteristic for cardiorenal diseases. During the test, the animals were housed singly in metabolic cages suitable for rats of this weight class (Tecniplast Deutschland GmbH, D-82383 Hohenpeissenberg) with free access to reduced-salt feed and drinking water for up to 24 hours. At the start of the test, the substance to be tested was administered by means of gavage in a volume of 2-3 ml/kg of body weight of a suitable solvent ('Adalat Placebo': 85.8% PEG400, 5.3% glycerol, 8.9% water). Control animals received only solvent ('Adalat Placebo' or solvent in table 2 below). Controls and substance tests were carried out in parallel on the same day. Control groups and substance-dose groups each consisted of 7 to 8 animals. During the test, the urine excreted by the animals was continuously collected in a receiver on the base of the cage. The urine volume per collection time was determined separately for each animal, and the concentration of the sodium and potassium ions excreted in the urine was measured by standard methods of flame photometry by a clinical-chemical analyzer system (ADVIA 2400, Siemens). The sodium/potassium ratio was calculated on the basis of the individual urinary sodium and potassium concentrations. The measurement intervals were typically the period up to 8 hours after the start of the test (day interval) or up to 24 hours after the start of the test (day and night interval).
In this comparison, four different administrations were performed: Group A received the solvent (Adalat Placebo) only. This group serves as control group. Group B received finerenone only. It serves to detect the effect of the monotherapy with finerenone. Group C received pecavaptan only. It serves to detect the effect of the monotherapy with pecavaptan. Group D received finerenone and pecavaptan in combination. It serves to detect the effect of the combined therapy with finerenone and pecavaptan (combination according to the invention). After the treatment, the urinary volume, urinary sodium and potassium concentrations were measured. Based on this measurement the sodium/potassium ratio was calculated. Table 2: Measured data (mean values ± standard deviation [SD]) of urinary volume, urinary potassium concentration (K+), urinary sodium concentration (Na+), and the resulting urinary sodium / potassium concentration ratio from awake Wistar rats with activated renin-angiotensin-aldosterone system (n = 7-8 animals per group), which were examined according to the 'assessment of the physiological efficacy' for 8 hours after oral administration of the substances in metabolic cages.

Regarding `C[C@H](O)c1nc(Cn2nc(-c3ccc(Cl)cc3)n(C[C@H](O)C(F)(F)F)c2=O)nn1-c1cccc(Cl)c1` [Pecavaptan, 5-(4-chlorophenyl)-2-({1-(3-chlorophenyl)-5-[(1S)-1-hydroxyethyl]-1H-1,2,4-triazol-3-yl}methyl)-4-[(2S)-3,3,3-trifluoro-2-hydroxypropyl]-2,4-dihydro-3H-1,2,4-triazol-3-one], the “Urinary K+ concentration” value was determined as 1.35 ± 0.08 mmol, the “Urinary Na+ concentration” value turned out to be 0.72 ± 0.11 mmol, the “Volume urine / body weight” value was 80.070 ±9.661 and the “Urinary Na+/K+ concentration ratio” value is 0.534 ±0.074. For the same compound, where the note is “listed as pecavaptan”, the “Urinary Na+/K+ concentration ratio” value was “increased”, the “Urinary K+ concentration” value is given as “increases”, the “Urinary Na+ concentration” value is reported as “increases” and the “Volume urine / body weight” value is recorded as “increases”.

For `CCOc1ncc(C)c2c1[C@H](c1ccc(C#N)cc1OC)C(C(N)=O)=C(C)N2` [Finerenone, (S)-4-(4-cyano-2-methoxyphenyl)-5-ethoxy-2,8-dimethyl-1,4-dihydro-1,6-naphthyridin-3-carboxamide], the “Urinary K+ concentration” value stood at 0.84 ± 0.04 mmol, the “Urinary Na+ concentration” value was 0.24 ± 0.03 mmol, the “Volume urine / body weight” value was 12.069 ±0.563 and the “Urinary Na+/K+ concentration ratio” value is reported as 0.283 ±0.031. Besides, for the setting “listed as finerenone”, the “Urinary Na+/K+ concentration ratio” value is “increase”, the “Urinary K+ concentration” value is on record as “no influence”, the “Urinary Na+ concentration” value was “increase” and the “Volume urine / body weight” value is “no influence”.
